Reference: ChEMBL document CHEMBL1135920, “Synthesis and in vitro antitumor activity of new deaza analogues of the nonpolyglutamatable antifolate N(alpha)-(4-amino-4-deoxypteroyl)-N(delta)-hemiphthaloyl-L-ornithine (PT523)” (J Med Chem, 2002)

What was measured:
[1] = biological target: T1, Dihydrofolate reductase (Homo sapiens, UniProt P00374); test: Inhibitory activity against human recombinant Dihydrofolate reductase
T1 sequence (P00374 whole entry): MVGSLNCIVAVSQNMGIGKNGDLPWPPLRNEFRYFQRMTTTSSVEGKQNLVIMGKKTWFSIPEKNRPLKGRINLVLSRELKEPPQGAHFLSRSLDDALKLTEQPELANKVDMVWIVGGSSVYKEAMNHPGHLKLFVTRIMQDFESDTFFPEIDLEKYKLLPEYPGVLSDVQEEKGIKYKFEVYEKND

[2] = tested on: CCRF-CEM; test: Inhibition the growth of CCRF-CEM human leukemic lymphoblasts in culture during 72 hr of continuous drug exposure; type: functional, cell-based

| IC50 [2] | Structure (SMILES) | Ki [1] |
| --- | --- | --- |
| 1.2 nM | CCC(Cc1cnc2nc(N)nc(N)c2n1)c1ccc(C(=O)NC(CCCNC(=O)c2ccccc2C(=O)O)C(=O)O)cc1 (centres undefined) | 0.00062 nM |
| 1.3 nM | C#CCC(Cc1cnc2nc(N)nc(N)c2n1)c1ccc(C(=O)NC(CCCNC(=O)c2ccccc2C(=O)O)C(=O)O)cc1 (centres undefined) | 0.0006 nM |
| 0.64 nM | Nc1nc(N)c2cc(CNc3ccc(C(=O)NC(CCCNC(=O)c4ccccc4C(=O)O)C(=O)O)cc3)ccc2n1 (centres undefined) |  |

| Structure (SMILES) | IC50 [2] | Ki [1] |
| --- | --- | --- |
| Nc1cc(N)c2nc(CCc3ccc(C(=O)NC(CCCNC(=O)c4ccccc4C(=O)O)C(=O)O)cc3)cnc2c1 (centres undefined) | 0.53 nM | 0.00035 nM |
| Nc1cc(N)c2cc(CCc3ccc(C(=O)NC(CCCNC(=O)c4ccccc4C(=O)O)C(=O)O)cc3)ccc2c1 (centres undefined) | 0.69 nM | 0.00021 nM |
